{"source": "patent US11702414B2", "about": "“Thiadiazole IRAK4 inhibitors” (Gilead Sciences, Inc., priority 2018, dated 2023)", "key": {"TNFα": {"test_system": "TNFα", "assay": "IRAK4 Monocyte TNFα Cell Based Assay", "set-up": "species or system human", "details": "Homo sapiens, Monocyte, read-out: EC50MONO TNF HTRF", "experimental": "IRAK4 Monocyte TNFα Cell Based Assay Procedure:\nThe cell suspension was then plated at a density of 5,000 cells/well onto black 384 well Greiner clear bottom plates. Plates were pre-spotted with test compounds and serially diluted in DMSO where 40 nL/well were delivered using the Echo 550 acoustic liquid dispenser (Labcyte®) for a final DMSO concentration of 0.1%. Plated cells were treated with compound for 1 hour at 37° C. Cells were then stimulated with 50 pg/ml of LPS (Sigma) excluding outside columns of plate used for unstimulated cell control wells. Cells were incubated for an additional 4 hours at 37° C. Cells were then spun out of the media and 5μl of sample were taken and analyzed for total TNFα content using the TR-FRET Human TNFα detection system (CisBio). This system utilizes two labeled antibodies (cryptate and XL665) that bind to two different epitopes of the TNFα molecule and produce FRET signal proportional to the concentration of TNFα in the sample. Detection antibodies are mixed 50:50 and 5 μL were dispensed into each well. Plates were covered with clear seals and incubated at room temp overnight. […] Percent of control was calculated as follows: % Control=100×(RatioSample−Ratio0% Stimulation)/(Ratio100% Stimulation−Ratio0% Stimulation) where unstimulated cells (0% stimulation) were the negative control and stimulated cells (100% stimulation) were used as the positive control."}, "IRAK4 enzyme": {"molecular_target": "IRAK4 enzyme (Homo sapiens (Human), UniProt Q9NWZ3)", "sequence (Q9NWZ3 whole entry)": "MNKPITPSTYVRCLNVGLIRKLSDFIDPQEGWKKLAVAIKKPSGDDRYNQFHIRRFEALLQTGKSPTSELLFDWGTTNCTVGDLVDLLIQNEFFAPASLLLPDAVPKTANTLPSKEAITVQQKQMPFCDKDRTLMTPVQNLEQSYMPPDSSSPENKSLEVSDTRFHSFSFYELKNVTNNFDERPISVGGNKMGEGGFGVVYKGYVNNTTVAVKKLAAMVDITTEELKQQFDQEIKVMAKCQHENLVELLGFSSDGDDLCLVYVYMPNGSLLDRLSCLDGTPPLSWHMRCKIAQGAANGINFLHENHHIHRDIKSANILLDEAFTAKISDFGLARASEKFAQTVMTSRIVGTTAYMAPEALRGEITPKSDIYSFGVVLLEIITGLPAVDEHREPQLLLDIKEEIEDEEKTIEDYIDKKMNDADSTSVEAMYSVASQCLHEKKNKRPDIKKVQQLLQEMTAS", "assay": "IRAK4 Biochemical Assay (TR-FRET, STK1 KinEASE)", "experimental": "IRAK4 enzyme (Carna Biosciences, Chuo-ku, Kobe, Japan) activity was measured by detecting phosphorylated peptide substrate formation using an antibody against the phosphorylated peptide substrate. This is a time-resolved fluorescence resonance energy transfer (TR-FRET) immunoassay, based on the STK1 KinEASE Assay (Cisbio, Bedford, Mass.). The assay was designed as a simple two-step, endpoint assay (a 5 μl enzyme reaction followed by 5 μl stop and detect Solution) performed in ProxiPlate-384 Plus plates (Perkin Elmer, Waltham, Mass.). […] Compounds diluted in DMSO were spotted into 384 well plates using a Labcyte® Echo 550 Liquid Handling System prior to addition of IRAK4 enzyme and peptide substrate. Reaction solutions were delivered using a Multi-Flo (Bio-Tek Instruments). The enzyme and peptide solution was incubated with compound for 15 minutes at room temp before the reaction was initiated by the addition of ATP. The standard 5 μl reaction mixture contained 500 μM ATP, 2 μM peptide (STK1 Peptide), 0.75 nM of IRAK4 in reaction buffer (50 mM HEPES, pH 7.0, 0.02% NaN3, 0.01% BSA, 0.1 mM Orthovanadate, 5 mM MgCl2, 0.025% NP-40, 1 mM DTT). After 120 min of incubation at room temperature, 5 μl of Stop and Detect Solution (1:100 Cryptate labeled anti-phosphorylated peptide antibody solution and 125 nM Tracer in a 50 mM HEPES pH 7.0 detection buffer containing sufficient EDTA) was added. The plate was then further incubated for 60 minutes at room temperature and read on Envision 2103 Multilabeled reader (PerkinElmer) with excitation/emission/FRET emission at 340 nm/615 nm/665 nm, respectively. Fluorescence intensities at 615 nm and 665 nm emission wavelengths were expressed as a ratio (665 nm/615 nm). Percentage of inhibition was calculated as below: % Inhibition=100×(RatioSample−Ratio0% Inhibition)/(Ratio100% Inhibition−Ratio0% Inhibition)\nThe 0% inhibition value comes from control wells lacking inhibitor."}, "[1]": {"details": "human monocytes, second part of Table 2 (compounds 33-343), unit inferred"}}, "note": "Like-named read-outs stand apart in the source and are kept apart here.", "data": [{"smiles": "CC(=O)N1CCN(c2nnc(-c3cnc(-c4ccc5cc(C#N)cnn45)cc3NC(C)C)s2)CC1", "note": "[Compound 232, 7-(5-(5-(4-acetylpiperazin-1-yl)-1,3,4-thiadiazol-2-yl)-4-(isopropylamino)pyridin-2-yl)pyrrolo[1,2-b]pyridazine-3-carbonitrile]", "values": [{"measurement": "EC50", "setting": "TNFα; [1]", "value": 7.4, "unit": "nM"}, {"measurement": "IC50", "setting": "IRAK4 enzyme", "value": 0.62, "unit": "nM"}]}, {"smiles": "CC(=O)N1C2CC1CN(c1nnc(-c3cnc(-c4ccc5cc(C#N)cnn45)cc3NC(C)C)s1)C2", "note": "[Compound 258, 7-(5-(5-(6-acetyl-3,6-diazabicyclo[3.1.1]heptan-3-yl)-1,3,4-thiadiazol-2-yl)-4-(isopropylamino)pyridin-2-yl)pyrrolo[1,2-b]pyridazine-3-carbonitrile]", "values": [{"measurement": "EC50", "setting": "TNFα", "value": 5.8, "unit": "nM"}, {"measurement": "IC50", "setting": "IRAK4 enzyme", "value": 1.26, "unit": "nM"}]}, {"smiles": "CC(=O)N1CC2CCC(C1)N2c1nnc(-c2cnc(-c3ccc4cc(C#N)cnn34)cc2NC(C)C)s1", "note": "[Compound 260, 7-(5-(5-(3-acetyl-3,8-diazabicyclo[3.2.1]octan-8-yl)-1,3,4-thiadiazol-2-yl)-4-(isopropylamino)pyridin-2-yl)pyrrolo[1,2-b]pyridazine-3-carbonitrile]", "values": [{"measurement": "EC50", "setting": "TNFα", "value": 15.8, "unit": "nM"}, {"measurement": "IC50", "setting": "IRAK4 enzyme", "value": 2.56, "unit": "nM"}]}, {"smiles": "CC(=O)N1CC2CC(C1)N2c1nnc(-c2cnc(-c3ccc4cc(C#N)cnn34)cc2NC(C)C)s1", "note": "[Compound 261, 7-(5-(5-(3-acetyl-3,6-diazabicyclo[3.1.1]heptan-6-yl)-1,3,4-thiadiazol-2-yl)-4-(isopropylamino)pyridin-2-yl)pyrrolo[1,2-b]pyridazine-3-carbonitrile]", "values": [{"measurement": "EC50", "setting": "TNFα", "value": 18.3, "unit": "nM"}, {"measurement": "IC50", "setting": "IRAK4 enzyme", "value": 0.73, "unit": "nM"}]}, {"smiles": "CC(=O)N1C2CCC1CN(c1nnc(-c3cnc(-c4ccc5cc(C#N)cnn45)cc3NC3(C)COC3)s1)C2", "note": "[Compound 264, 7-(5-(5-(8-acetyl-3,8-diazabicyclo[3.2.1]octan-3-yl)-1,3,4-thiadiazol-2-yl)-4-((3-methyloxetan-3-yl)amino)pyridin-2-yl)pyrrolo[1,2-b]pyridazine-3-carbonitrile]", "values": [{"measurement": "EC50", "setting": "TNFα", "value": 2.7, "unit": "nM"}, {"measurement": "IC50", "setting": "IRAK4 enzyme", "value": 0.59, "unit": "nM"}]}, {"smiles": "CC(=O)N1C[C@H]2COC[C@@H](C1)N2c1nnc(-c2cnc(-c3ccc4cc(C#N)cnn34)cc2NC(C)C)s1", "note": "[Compound 266, 7-(5-(5-((1R,5S)-7-acetyl-3-oxa-7,9-diazabicyclo[3.3.1]nonan-9-yl)-1,3,4-thiadiazol-2-yl)-4-(isopropylamino)pyridin-2-yl)pyrrolo[1,2-b]pyridazine-3-carbonitrile]", "values": [{"measurement": "EC50", "setting": "TNFα", "value": 3.2, "unit": "nM"}, {"measurement": "IC50", "setting": "IRAK4 enzyme; second part of Table 2 (compounds 33-343), unit inferred, read-out: IC50 IRAK4-HTBS", "value": 0.49, "unit": "nM"}]}, {"smiles": "CC(=O)N1[C@@H]2COC[C@H]1CN(c1nnc(-c3cnc(-c4ccc5cc(C#N)cnn45)cc3NC3CCOCC3)s1)C2", "note": "[Compound 269, 7-(5-(5-((1R,5S)-9-acetyl-3-oxa-7,9-diazabicyclo[3.3.1]nonan-7-yl)-1,3,4-thiadiazol-2-yl)-4-((tetrahydro-2H-pyran-4-yl)amino)pyridin-2-yl)pyrrolo[1,2-b]pyridazine-3-carbonitrile]", "values": [{"measurement": "EC50", "setting": "TNFα", "value": 5.8, "unit": "nM"}, {"measurement": "IC50", "setting": "IRAK4 enzyme", "value": 0.8, "unit": "nM"}]}, {"smiles": "CC(C)Nc1cc(-c2ccc3cc(C#N)cnn23)ncc1-c1nnc(CC#N)s1", "note": "[Compound 321, 7-(5-(5-(cyanomethyl)-1,3,4-thiadiazol-2-yl)-4-(isopropylamino)pyridin-2-yl)pyrrolo[1,2-b]pyridazine-3-carbonitrile]", "values": [{"measurement": "EC50", "setting": "TNFα; [1]", "value": 53.5, "unit": "nM"}, {"measurement": "IC50", "setting": "IRAK4 enzyme", "value": 1.46, "unit": "nM"}]}, {"smiles": "CC(C)Nc1cc(-c2ccc3cc(C#N)cnn23)ncc1-c1nnc(C2CCOC2)s1", "note": "(centres unmarked) [Compound 322, 7-(4-(isopropylamino)-5-(5-(tetrahydrofuran-3-yl)-1,3,4-thiadiazol-2-yl)pyridin-2-yl)pyrrolo[1,2-b]pyridazine-3-carbonitrile]", "values": [{"measurement": "EC50", "setting": "TNFα; [1]", "value": 419, "unit": "nM"}, {"measurement": "IC50", "setting": "IRAK4 enzyme", "value": 0.31, "unit": "nM"}]}, {"smiles": "CC(=O)N[C@H]1CN(c2nnc(-c3cnc(-c4ccc5cc(C#N)cnn45)cc3NC(C)C)s2)CC12CC2", "note": "[Compound 323, (R)-N-(5-(5-(6-(3-cyanopyrrolo[1,2-b]pyridazin-7-yl)-4-(isopropylamino)pyridin-3-yl)-1,3,4-thiadiazol-2-yl)-5-azaspiro[2.4]heptan-7-yl)acetamide]", "values": [{"measurement": "EC50", "setting": "TNFα; [1]", "value": 3.7, "unit": "nM"}, {"measurement": "IC50", "setting": "IRAK4 enzyme", "value": 0.62, "unit": "nM"}]}, {"smiles": "CC(=O)N[C@@H]1CN(c2nnc(-c3cnc(-c4ccc5cc(C#N)cnn45)cc3NC(C)C)s2)CC12CC2", "note": "[Compound 324, (S)-N-(5-(5-(6-(3-cyanopyrrolo[1,2-b]pyridazin-7-yl)-4-(isopropylamino)pyridin-3-yl)-1,3,4-thiadiazol-2-yl)-5-azaspiro[2.4]heptan-7-yl)acetamide]", "values": [{"measurement": "EC50", "setting": "TNFα; [1]", "value": 19.1, "unit": "nM"}, {"measurement": "IC50", "setting": "IRAK4 enzyme", "value": 0.99, "unit": "nM"}]}, {"smiles": "CC(C)Nc1cc(-c2ccc3cc(C#N)cnn23)ncc1-c1nnc(-n2cccn2)s1", "note": "[Compound 325, 7-(5-(5-(1H-pyrazol-1-yl)-1,3,4-thiadiazol-2-yl)-4-(isopropylamino)pyridin-2-yl)pyrrolo[1,2-b]pyridazine-3-carbonitrile]", "values": [{"measurement": "EC50", "setting": "TNFα; [1]", "value": 1000, "unit": "nM"}, {"measurement": "IC50", "setting": "IRAK4 enzyme", "value": 8.07, "unit": "nM"}]}, {"smiles": "CC(C)Nc1cc(-c2ccc3cc(C#N)cnn23)ncc1-c1nnc(-n2cnc(C3CC3)c2)s1", "note": "[Compound 326, 7-(5-(5-(4-cyclopropyl-1H-imidazol-1-yl)-1,3,4-thiadiazol-2-yl)-4-(isopropylamino)pyridin-2-yl)pyrrolo[1,2-b]pyridazine-3-carbonitrile]", "values": [{"measurement": "IC50", "setting": "IRAK4 enzyme", "value": 6.01, "unit": "nM"}]}, {"smiles": "CC(=O)NC1CN(c2nnc(-c3cnc(-c4ccc5cc(C#N)cnn45)cc3NC(C)C)s2)CC1(F)F", "note": "(centres unmarked) [Compound 327, N-(1-(5-(6-(3-cyanopyrrolo[1,2-b]pyridazin-7-yl)-4-(isopropylamino)pyridin-3-yl)-1,3,4-thiadiazol-2-yl)-4,4-difluoropyrrolidin-3-yl)acetamide]", "values": [{"measurement": "EC50", "setting": "TNFα; [1]", "value": 10.2, "unit": "nM"}, {"measurement": "IC50", "setting": "IRAK4 enzyme", "value": 0.37, "unit": "nM"}]}, {"smiles": "CC(C)Nc1cc(-c2ccc3cc(C#N)cnn23)ncc1-c1nnc(N2CC(N3CCC(F)(F)C3)C2)s1", "note": "[Compound 328, 7-(5-(5-(3-(3,3-difluoropyrrolidin-1-yl)azetidin-1-yl)-1,3,4-thiadiazol-2-yl)-4-(isopropylamino)pyridin-2-yl)pyrrolo[1,2-b]pyridazine-3-carbonitrile]", "values": [{"measurement": "EC50", "setting": "TNFα; [1]", "value": 80.5, "unit": "nM"}, {"measurement": "IC50", "setting": "IRAK4 enzyme", "value": 1.02, "unit": "nM"}]}, {"smiles": "CC(C)Nc1cc(-c2ccc3cc(C#N)cnn23)ncc1-c1nnc(N2CCC[C@H]2CO)s1", "note": "[Compound 329, (S)-7-(5-(5-(2-(hydroxymethyl)pyrrolidin-1-yl)-1,3,4-thiadiazol-2-yl)-4-(isopropylamino)pyridin-2-yl)pyrrolo[1,2-b]pyridazine-3-carbonitrile]", "values": [{"measurement": "EC50", "setting": "TNFα; [1]", "value": 54.2, "unit": "nM"}, {"measurement": "IC50", "setting": "IRAK4 enzyme", "value": 0.84, "unit": "nM"}]}, {"smiles": "CC(=O)N[C@@H]1CCN(c2nnc(-c3cnc(-c4ccc5cc(C#N)cnn45)cc3NC(C)C)s2)C1", "note": "[Compound 330, (R)-N-(1-(5-(6-(3-cyanopyrrolo[1,2-b]pyridazin-7-yl)-4-(isopropylamino)pyridin-3-yl)-1,3,4-thiadiazol-2-yl)pyrrolidin-3-yl)acetamide]", "values": [{"measurement": "EC50", "setting": "TNFα; [1]", "value": 47.1, "unit": "nM"}, {"measurement": "IC50", "setting": "IRAK4 enzyme", "value": 1.8, "unit": "nM"}]}, {"smiles": "CC(=O)N[C@H]1CCN(c2nnc(-c3cnc(-c4ccc5cc(C#N)cnn45)cc3NC(C)C)s2)C1", "note": "[Compound 331, (S)-N-(1-(5-(6-(3-cyanopyrrolo[1,2-b]pyridazin-7-yl)-4-(isopropylamino)pyridin-3-yl)-1,3,4-thiadiazol-2-yl)pyrrolidin-3-yl)acetamide]", "values": [{"measurement": "EC50", "setting": "TNFα; [1]", "value": 81.4, "unit": "nM"}, {"measurement": "IC50", "setting": "IRAK4 enzyme", "value": 1.21, "unit": "nM"}]}, {"smiles": "CC(C)Nc1cc(-c2ccc3cc(C#N)cnn23)ncc1-c1nnc(C2CCC(C#N)CC2)s1", "note": "(centres unmarked) [Compound 333, 7-(5-(5-(4-cyanocyclohexyl)-1,3,4-thiadiazol-2-yl)-4-(isopropylamino)pyridin-2-yl)pyrrolo[1,2-b]pyridazine-3-carbonitrile]", "values": [{"measurement": "EC50", "setting": "TNFα; [1]", "value": 1000, "unit": "nM"}, {"measurement": "IC50", "setting": "IRAK4 enzyme", "value": 1.99, "unit": "nM"}]}, {"smiles": "CC(=O)N[C@H]1CCN(c2nnc(-c3cnc(-c4ccc5cc(C#N)cnn45)cc3NC(C)C)s2)C[C@@H]1O", "note": "[Example 64, N-((3S,4S)-1-(5-(6-(3-cyanopyrrolo[1,2-b]pyridazin-7-yl)-4-(isopropylamino)pyridin-3-yl)-1,3,4-thiadiazol-2-yl)-3-hydroxypiperidin-4-yl)acetamide]", "values": [{"measurement": "IC50", "setting": "IRAK4 enzyme", "value": 0.28, "unit": "nM"}]}]}
